Results from the NIST ThermoML archive (doi:10.1016/j.jct.2005.03.013).
Numbers after ± are expanded uncertainties.

Tests used:
[1] = for viscosity: 101.33 kPa, Liquid; for Triple point temperature: Crystal
[2] = molar heat capacity at constant pressure; settings: 101.33 kPa, Liquid, Large sample (1 g) DSC

| Structure (SMILES) | viscosity ([1]; 283 K) | viscosity ([1]; 293 K) | viscosity ([1]; 298 K) | viscosity ([1]; 303 K) | viscosity ([1]; 313 K) | viscosity ([1]; 323 K) | viscosity ([1]; 333 K) | viscosity ([1]; 343 K) | Glass transition temperature [1] | molar heat capacity at constant pressure ([2]; 298 K) | molar heat capacity at constant pressure ([2]; 323 K) | Triple point temperature [1] |
| --- | --- | --- | --- | --- | --- | --- | --- | --- | --- | --- | --- | --- |
| CC(=O)[O-].CCCCn1cc[n+](C)c1 [1-butyl-3-methylimidazolium acetate] | 1630 ± 240 mPa·s | 646 ± 80 mPa·s | 440 ± 44 mPa·s | 309 ± 27 mPa·s | 165 ± 12 mPa·s | 97 ± 6 mPa·s | 62 ± 3 mPa·s | 42 ± 2 mPa·s |  |  |  |  |
| CCCCCCn1cc[n+](C)c1.[Br-] [3-hexyl-1-methyl-1H-imidazolium bromide] |  |  |  |  |  |  |  |  | -49 ± 4 °C | 344 ± 35 J/K/mol | 357 ± 36 J/K/mol |  |
| CCOS(=O)(=O)[O-].CC[n+]1ccccc1 [1-ethylpyridinium ethyl sulfate] | 356 ± 32 mPa·s | 183 ± 14 mPa·s | 137 ± 9 mPa·s | 105 ± 6 mPa·s | 66 ± 4 mPa·s | 43 ± 2 mPa·s | 31 ± 2 mPa·s | 23 ± 1 mPa·s |  |  |  |  |
| CCCCn1cc[n+](C)c1.COCCOCCOS(=O)(=O)[O-] [1-butyl-3-methylimidazolium 2-(2-methoxyethoxy)ethyl sulfate] | 4070 ± 730 mPa·s | 1676 ± 260 mPa·s | 1033 ± 140 mPa·s | 731 ± 82 mPa·s | 392 ± 36 mPa·s | 228 ± 17 mPa·s | 146 ± 9 mPa·s | 98 ± 5 mPa·s | -62 ± 4 °C | 643 ± 65 J/K/mol | 652 ± 66 J/K/mol |  |
| CCCCCCn1cc[n+](C)c1.F[B-](F)(F)F [1-hexyl-3-methylimidazolium tetrafluoroborate] |  |  |  |  |  |  |  |  | -79 ± 4 °C | 416 ± 42 J/K/mol | 433 ± 44 J/K/mol |  |
| CCCCCCCCn1cc[n+](C)c1.O=S(=O)([N-]S(=O)(=O)C(F)(F)F)C(F)(F)F |  |  |  |  |  |  |  |  | -84 ± 4 °C | 654 ± 66 J/K/mol | 677 ± 68 J/K/mol |  |
| CCCC[n+]1cc(C)cc(C)c1.[Br-] [1-butyl-3,5-dimethylpyridinium bromide] |  |  |  |  |  |  |  |  | -24 ± 4 °C |  |  | 368 ± 3 K |
| CCn1cc[n+](C)c1.O=S(=O)([N-]S(=O)(=O)C(F)(F)F)C(F)(F)F | 52 ± 3 mPa·s | 36 ± 2 mPa·s | 32 ± 2 mPa·s | 26 ± 1 mPa·s | 19 ± 1 mPa·s | 15 ± 1 mPa·s | 12 ± 1 mPa·s | 9 ± 1 mPa·s |  |  |  |  |
| CCCC[n+]1cccc(C)c1.[Br-] [1-butyl-3-methylpyridinium bromide] |  |  |  |  |  |  |  |  | -36 ± 4 °C |  |  |  |
| CCCCCC[n+]1ccc(N(C)C)c(C)c1.[Br-] [4-(dimethylamino)-1-hexyl-3-methylpyridinium bromide] |  |  |  |  |  |  |  |  | -2 ± 4 °C |  |  | 392 ± 3 K |
| CCCC[n+]1ccccc1.[Br-] [1-butylpyridinium bromide] |  |  |  |  |  |  |  |  |  |  |  | 378 ± 3 K |
| CCCC[n+]1ccc(N(C)C)cc1.[Br-] [1-butyl-4-(dimethylamino)pyridinium bromide] |  |  |  |  |  |  |  |  |  |  |  | 495 ± 3 K |
| CCCCn1cc[n+](C)c1.O=C([O-])C(F)(F)F [1-butyl-3-methylimidazolium trifluoroacetate] | 155 ± 10 mPa·s | 89 ± 5 mPa·s | 70 ± 4 mPa·s | 53 ± 3 mPa·s | 37 ± 2 mPa·s | 26 ± 1 mPa·s | 19 ± 1 mPa·s | 15 ± 1 mPa·s |  |  |  |  |
| CCCCCC[n+]1cccc(C)c1.[Br-] [1-hexyl-3-methylpyridinium bromide] |  |  |  |  |  |  |  |  | -37 ± 4 °C | 343 ± 35 J/K/mol | 358 ± 36 J/K/mol |  |
| CCCC[n+]1cccc(C)c1.O=S(=O)([N-]S(=O)(=O)C(F)(F)F)C(F)(F)F | 138 ± 8 mPa·s | 80 ± 4 mPa·s | 63 ± 3 mPa·s | 51 ± 2 mPa·s | 34 ± 2 mPa·s | 24 ± 1 mPa·s | 18 ± 1 mPa·s | 14 ± 1 mPa·s | -84 ± 4 °C | 622 ± 63 J/K/mol | 641 ± 65 J/K/mol |  |
| CCCC[n+]1cccc(C)c1.F[B-](F)(F)F [1-butyl-3-methylpyridinium tetrafluoroborate] | 517 ± 53 mPa·s | 246 ± 22 mPa·s | 177 ± 13 mPa·s | 132 ± 8 mPa·s | 78 ± 4 mPa·s | 48 ± 3 mPa·s | 33 ± 2 mPa·s | 23 ± 1 mPa·s | -76 ± 4 °C | 405 ± 41 J/K/mol | 421 ± 43 J/K/mol |  |
| CCCCCCn1cc[n+](C)c1C.O=S(=O)([N-]S(=O)(=O)C(F)(F)F)C(F)(F)F | 317 ± 27 mPa·s | 171 ± 13 mPa·s | 131 ± 9 mPa·s | 101 ± 6 mPa·s | 63 ± 3 mPa·s | 42 ± 2 mPa·s | 30 ± 2 mPa·s | 22 ± 1 mPa·s | -74 ± 4 °C | 686 ± 69 J/K/mol | 705 ± 71 J/K/mol | 268 ± 3 K |
| CCCCCCCCn1cc[n+](C)c1.[Br-] [1-methyl-3-octylimidazolium bromide] |  |  |  |  |  |  |  |  |  | 392 ± 40 J/K/mol | 408 ± 41 J/K/mol |  |
| CCCCCC[n+]1ccc(N(C)C)cc1.[Br-] [4-(dimethylamino)-1-hexylpyridinium bromide] |  |  |  |  |  |  |  |  |  |  |  | 469 ± 3 K |
| CCCCCCCCCCCCCC[N+](C)(CCOCCOCCOCCOCCOCCO)CCOCCOCCOCCOCCOCCO.COS(=O)(=O)[O-] | 10240 ± 4400 mPa·s |  | 2790 ± 910 mPa·s | 1910 ± 560 mPa·s | 964 ± 230 mPa·s | 511 ± 98 mPa·s | 300 ± 44 mPa·s | 187 ± 21 mPa·s |  | 1066 ± 110 J/K/mol | 1098 ± 110 J/K/mol |  |
| CCCCCC[n+]1cc(C)cc(C)c1.O=S(=O)([N-]S(=O)(=O)C(F)(F)F)C(F)(F)F | 251 ± 20 mPa·s | 136 ± 10 mPa·s | 104 ± 6 mPa·s | 81 ± 4 mPa·s | 52 ± 3 mPa·s | 35 ± 2 mPa·s | 24 ± 1 mPa·s | 18 ± 1 mPa·s | -76 ± 4 °C | 620 ± 63 J/K/mol | 665 ± 67 J/K/mol | 283 ± 3 K |
| CCCCCC[n+]1ccc(N2CCC(C)CC2)cc1.[Br-] [1-hexyl-4-(4-methyl-1-piperidinyl)pyridinium bromide] |  |  |  |  |  |  |  |  | 33 ± 4 °C |  |  |  |
